# Laboratory results published in ChEMBL document CHEMBL5150050, “Hybrids of small CD4 mimics and gp41-related peptides as dual-target HIV entry inhibitors” (Bioorg Med Chem, 2022).
# Where a SMILES comes first, the peptide text is derived from it. [ ]: non-standard residue; d: D form. Nle = CCCC[C@H](N)C(=O)O
# How the values were obtained:
# [1] = tested on: Human immunodeficiency virus 1; experiment: Antiviral activity against HIV-1 KP-5mvcR infected in human TZM-bl cells assessed as inhibition of viral entry by measuring reduction in RLU by single round assay; assay type: functional, organism-based; conditions: Human immunodeficiency virus 1, KP-5mvcR
# [2] = tested on: TZM; experiment: Cytotoxicity against human TZM-bl cells; assay type: toxicity, cell-based
# [3] = tested on: Human immunodeficiency virus 1; experiment: Antiviral activity against HIV-1 KP-5mvcR infected in human TZM-bl cells assessed as inhibition of viral entry by measuring reduction in RLU at 10 nM by single round assay relative to control; assay type: functional; design: scale not given: the % may be the effect or the level left
Compound,IC50 [1] [µM],Activity [2],Activity [3] [%]
N=C(N)NCCCCC(=O)NCCN1CCC(NC(=O)C(=O)Nc2ccc(Cl)cc2)CC1,0.145,Non-Toxic,
CC[C@H](C)[C@H](NC(=O)[C@H](CCCCN)NC(=O)[C@H](CCCCN)NC(=O)[C@H](CC(=O)O)NC(=O)[C@H](Cc1c[nH]c2ccccc12)NC(=O)[C@H](CCC(=O)O)NC(=O)[C@H](CCC(=O)O)NC(=O)[C@H](Cc1c[nH]c2ccccc12)NC(C)=O)C(=O)N[C@@H](CCC(=O)O)C(=O)N[C@@H](CCC(=O)O)C(=O)N[C@@H](Cc1ccc(O)cc1)C(=O)N[C@H](C(=O)N[C@@H](CCCCN)C(=O)N[C@@H](CCCCN)C(=O)N[C@H](C(=O)N[C@@H](CCC(=O)O)C(=O)N[C@@H](CCC(=O)O)C(=O)N[C@@H](CC(C)C)C(=O)N[C@H](C(=O)N[C@@H](CCCCN)C(=O)N[C@@H](CCCCN)C(=O)N[C@@H](CO)C(=O)N[C@H](CSCC(=O)NCCCC[C@H](NC(=O)[C@H](CO)NC(=O)CNC(=O)CNC(=O)CNC(=O)CNC(=O)CCC(=O)N[C@@H](CCCNC(=N)N)C(=O)NCCN1CCC(NC(=O)C(=O)Nc2ccc(Cl)cc2)CC1)C(N)=O)C(N)=O)[C@@H](C)CC)[C@@H](C)CC)[C@@H](C)O,0.15,,
CCCC[C@H](NC(=O)[C@H](Cc1c[nH]c2ccccc12)NC(C)=O)C(=O)N[C@@H](CCC(=O)O)C(=O)N[C@@H](Cc1c[nH]c2ccccc12)C(=O)N[C@@H](CC(=O)O)C(=O)N[C@@H](CCCNC(=N)N)C(=O)N[C@@H](CCCCN)C(=O)N[C@H](C(=O)N[C@@H](CCC(=O)O)C(=O)N[C@@H](CCC(=O)O)C(=O)N[C@@H](Cc1ccc(O)cc1)C(=O)N[C@H](C(=O)N[C@@H](CCCCN)C(=O)N[C@@H](CCCCN)C(=O)N[C@H](C(=O)N[C@@H](CCCCN)C(=O)N[C@@H](CCCCN)C(=O)N[C@@H](CC(C)C)C(=O)N[C@H](C(=O)N[C@@H](CCC(=O)O)C(=O)N[C@@H](CCC(=O)O)C(=O)N[C@@H](CO)C(=O)N[C@@H](CCC(N)=O)C(=O)N[C@@H](CCC(=O)O)C(=O)N[C@@H](CCC(N)=O)C(=O)N[C@@H](CCC(N)=O)C(=O)N[C@@H](CCC(=O)O)C(=O)N[C@@H](CCCCN)C(=O)N[C@@H](CC(N)=O)C(=O)N[C@@H](CCC(=O)O)C(=O)N[C@@H](CCCCN)C(=O)N[C@@H](CCC(=O)O)C(=O)N[C@@H](CC(C)C)C(=O)N[C@@H](CCCCN)C(=O)N[C@H](CSCC(=O)NCc1cn(CCCC[C@H](NC(=O)[C@H](CO)NC(=O)CNC(=O)CNC(=O)CNC(=O)CNC(=O)CCC(=O)N[C@@H](CCCNC(=N)N)C(=O)NCCN2CCC(NC(=O)C(=O)Nc3ccc(Cl)cc3)CC2)C(N)=O)nn1)C(N)=O)[C@@H](C)CC)[C@@H](C)CC)[C@@H](C)O)[C@@H](C)CC,0.0055,,
CCCC[C@H](NC(=O)[C@H](Cc1c[nH]c2ccccc12)NC(C)=O)C(=O)N[C@@H](CCC(=O)O)C(=O)N[C@@H](Cc1c[nH]c2ccccc12)C(=O)N[C@@H](CC(=O)O)C(=O)N[C@@H](CCCNC(=N)N)C(=O)N[C@@H](CCCCN)C(=O)N[C@H](C(=O)N[C@@H](CCC(=O)O)C(=O)N[C@@H](CCC(=O)O)C(=O)N[C@@H](Cc1ccc(O)cc1)C(=O)N[C@H](C(=O)N[C@@H](CCCCN)C(=O)N[C@@H](CCCCN)C(=O)N[C@H](C(=O)N[C@@H](CCCCN)C(=O)N[C@@H](CCCCN)C(=O)N[C@@H](CC(C)C)C(=O)N[C@H](C(=O)N[C@@H](CCC(=O)O)C(=O)N[C@@H](CCC(=O)O)C(=O)N[C@@H](CO)C(=O)N[C@@H](CCC(N)=O)C(=O)N[C@@H](CCC(=O)O)C(=O)N[C@@H](CCC(N)=O)C(=O)N[C@@H](CCC(N)=O)C(=O)N[C@@H](CCC(=O)O)C(=O)N[C@@H](CCCCN)C(=O)N[C@@H](CC(N)=O)C(=O)N[C@@H](CCC(=O)O)C(=O)N[C@@H](CCCCN)C(=O)N[C@@H](CCC(=O)O)C(=O)N[C@@H](CC(C)C)C(=O)N[C@@H](CCCCN)C(=O)N[C@H](CSCC(=O)NCCCC[C@H](NC(=O)[C@H](CO)NC(=O)CNC(=O)CNC(=O)CNC(=O)CNC(=O)CCC(=O)N[C@@H](CCCNC(=N)N)C(=O)NCCN1CCC(NC(=O)C(=O)Nc2ccc(Cl)cc2)CC1)C(N)=O)C(N)=O)[C@@H](C)CC)[C@@H](C)CC)[C@@H](C)O)[C@@H](C)CC,< 0.01,,95.6
CCCC[C@H](NC(=O)[C@H](Cc1c[nH]c2ccccc12)NC(C)=O)C(=O)N[C@@H](CCC(=O)O)C(=O)N[C@@H](Cc1c[nH]c2ccccc12)C(=O)N[C@@H](CC(=O)O)C(=O)N[C@@H](CCCNC(=N)N)C(=O)N[C@@H](CCCCN)C(=O)N[C@H](C(=O)N[C@@H](CCC(=O)O)C(=O)N[C@@H](CCC(=O)O)C(=O)N[C@@H](Cc1ccc(O)cc1)C(=O)N[C@H](C(=O)N[C@@H](CCCCN)C(=O)N[C@@H](CCCCN)C(=O)N[C@H](C(=O)N[C@@H](CCCCN)C(=O)N[C@@H](CCCCN)C(=O)N[C@@H](CC(C)C)C(=O)N[C@H](C(=O)N[C@@H](CCC(=O)O)C(=O)N[C@@H](CCC(=O)O)C(=O)N[C@@H](CO)C(=O)N[C@@H](CCC(N)=O)C(=O)N[C@@H](CCC(=O)O)C(=O)N[C@@H](CCC(N)=O)C(=O)N[C@@H](CCC(N)=O)C(=O)N[C@@H](CCC(=O)O)C(=O)N[C@@H](CCCCN)C(=O)N[C@@H](CC(N)=O)C(=O)N[C@@H](CCC(=O)O)C(=O)N[C@@H](CCCCN)C(=O)N[C@@H](CCC(=O)O)C(=O)N[C@@H](CC(C)C)C(=O)N[C@@H](CCCCN)C(N)=O)[C@@H](C)CC)[C@@H](C)CC)[C@@H](C)O)[C@@H](C)CC (Ac-W[Nle]EWDRKIEEYTKKIKKLIEESQEQQEKNEKELK-NH2),0.00064,Non-Toxic,
O=C1Nc2ccc(Cl)cc2[C@@](C#CC2CC2)(C(F)(F)F)O1 [EFAVIRENZ],0.011,,
Ac-WEEWDKKIEEYTKKIEELIKKS-NH2,0.06,Non-Toxic,
enfuvirtide,0.032,,
